The supplement of paper PMC9663587

Legend:
HCC1569 = assay: area over the GR curve, 72 h; higher = more effect;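 also: Dye Drop or Deep Dye Drop imaging of viable cells in 384-well plates (Hoechst nuclei, LIVE/DEAD dye), nine half-log doses, GR normalized to DMSO controls and time-zero plates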
SUM44PE = assay: area over the GR curve, 72 h; higher = more effect;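 also: Dye Drop or Deep Dye Drop imaging of viable cells in 384-well plates (Hoechst nuclei, LIVE/DEAD dye), nine half-log doses, GR normalized to DMSO controls and time-zero plates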
HCC1954 = assay: area over the GR curve, 72 h; higher = more effect;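 also: Dye Drop or Deep Dye Drop imaging of viable cells in 384-well plates (Hoechst nuclei, LIVE/DEAD dye), nine half-log doses, GR normalized to DMSO controls and time-zero plates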
SKBR3 = assay: GRmax, 72 h; higher = less effect;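 also: breast cell lines in 384-well plates, nine doses across a 10^4 range, Dye Drop imaging of viable cells vs DMSO and time-zero plates, GR 0 means no net growth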
SUM190PT = assay: GRmax, 72 h; higher = less effect;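 also: breast cell lines in 384-well plates, nine doses across a 10^4 range, Dye Drop imaging of viable cells vs DMSO and time-zero plates, GR 0 means no net growth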
CAL120 = assay: GRmax, 72 h; higher = less effect;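 also: breast cell lines in 384-well plates, nine doses across a 10^4 range, Dye Drop imaging of viable cells vs DMSO and time-zero plates, GR 0 means no net growth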
CAMA1 = assay: GRmax, 72 h; higher = less effect;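 also: breast cell lines in 384-well plates, nine doses across a 10^4 range, Dye Drop imaging of viable cells vs DMSO and time-zero plates, GR 0 means no net growth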
SUM1315 = assay: GRmax, 72 h; higher = less effect
HCC202 = assay: GRmax, 72 h; higher = less effect
HCC1187 = assay: GRmax, 72 h; higher = less effect
MCF10A = assay: GRmax, 72 h; higher = less effect
SUM185PE = assay: GRmax, 72 h; higher = less effect
SUM52PE = assay: GRmax, 72 h; higher = less effect

Compound	area over the GR curve (HCC1569) [GR]	area over the GR curve (SUM44PE) [GR]	area over the GR curve (HCC1954) [GR]	GRmax, 72 h (SKBR3) [GR]	GRmax, 72 h (SUM190PT) [GR]	GRmax, 72 h (CAL120) [GR]	GRmax, 72 h (CAMA1) [GR]	GRmax, 72 h (SUM1315) [GR]	GRmax, 72 h (HCC202) [GR]	GRmax, 72 h (HCC1187) [GR]	GRmax, 72 h (MCF10A) [GR]	GRmax, 72 h (SUM185PE) [GR]	GRmax, 72 h (SUM52PE) [GR]
O=C(CCCCCCC(=O)Nc1ccccc1)NO [Vorinostat] (max 10 µM)	0.163	0.181	0.234	-0.632	-0.431	-0.228	-0.49	-0.0668	0.104	-0.467	0.0566	0.222	0.0882
C=CC(=O)Nc1ccc(C(=O)Nc2[nH]nc3c2CN(C(=O)N[C@H](CN(C)C)c2ccccc2)C3(C)C)cc1 [YKL-5-124] (max 10 µM)	0.736	1.16	0.969	-0.602	-0.39	0.182	-0.604	-0.406	-0.178	-0.635	-0.162	-0.0052	0.0084
CN1CCN(C(=O)c2ccc3cc(CCNc4ncnc5ccc(C#N)cc45)ccc3c2)CC1 [senexin b] (max 10 µM)	0.158	0.369	0.327	0.797	0.248	0.856	0.229	0.656	0.705	1.62	0.851	0.444	0.742
